Experimental data: PubChem BioAssay (NCI)
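Exposure lasted 48 hours, with cells grown in 96-well plates and compounds tested at five concentrations. Abbreviation: GI50, concentration required for 50% inhibition of growth. TGI: concentration producing complete growth inhibition.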

Columns and labels:
Experiment in all cases: DTP human tumour cell line panel, 48 h
786-0 renal = system: 786-0 renal
A498 renal = system: A498 renal
A549 NSCLC = system: A549 NSCLC
ACHN renal = system: ACHN renal
BT-549 breast = system: BT-549 breast
CAKI-1 renal = system: CAKI-1 renal
CCRF-CEM leukemia = system: CCRF-CEM leukemia
COLO 205 colon = system: COLO 205 colon
DU-145 prostate = system: DU-145 prostate
EKVX NSCLC = system: EKVX NSCLC
HCC-2998 colon = system: HCC-2998 colon
HCT-116 colon = system: HCT-116 colon
HCT-15 colon = system: HCT-15 colon
HL-60(TB) leukemia = system: HL-60(TB) leukemia
HOP-62 NSCLC = system: HOP-62 NSCLC
HOP-92 NSCLC = system: HOP-92 NSCLC
HS 578T breast = system: HS 578T breast
HT29 colon = system: HT29 colon
IGROV1 ovarian = system: IGROV1 ovarian
K-562 leukemia = system: K-562 leukemia
KM12 colon = system: KM12 colon
LOX IMVI melanoma = system: LOX IMVI melanoma
M14 melanoma = system: M14 melanoma
MALME-3M melanoma = system: MALME-3M melanoma
MCF7 breast = system: MCF7 breast
MDA-MB-231 breast = system: MDA-MB-231 breast
MDA-MB-435 = system: MDA-MB-435
MOLT-4 leukemia = system: MOLT-4 leukemia
NCI-H226 lung = system: NCI-H226 lung
NCI-H23 lung = system: NCI-H23 lung
NCI-H460 lung = system: NCI-H460 lung
NCI-H522 lung = system: NCI-H522 lung
NCI/ADR-RES ovarian = system: NCI/ADR-RES ovarian
OVCAR-3 ovarian = system: OVCAR-3 ovarian
OVCAR-4 ovarian = system: OVCAR-4 ovarian
OVCAR-5 ovarian = system: OVCAR-5 ovarian
OVCAR-8 ovarian = system: OVCAR-8 ovarian
PC-3 prostate = system: PC-3 prostate
RPMI-8226 leukemia = system: RPMI-8226 leukemia
RXF 393 renal = system: RXF 393 renal
SF-268 CNS = system: SF-268 CNS
SF-295 CNS = system: SF-295 CNS
SF-539 CNS = system: SF-539 CNS
SK-MEL-2 melanoma = system: SK-MEL-2 melanoma
SK-MEL-28 melanoma = system: SK-MEL-28 melanoma
SK-MEL-5 melanoma = system: SK-MEL-5 melanoma
SK-OV-3 ovarian = system: SK-OV-3 ovarian
SN12C renal = system: SN12C renal
SNB-19 CNS = system: SNB-19 CNS
SNB-75 CNS = system: SNB-75 CNS
SR leukemia = system: SR leukemia
SW-620 colon = system: SW-620 colon
T-47D breast = system: T-47D breast
TK-10 renal = system: TK-10 renal
U251 CNS = system: U251 CNS
UACC-257 melanoma = system: UACC-257 melanoma
UACC-62 melanoma = system: UACC-62 melanoma
UO-31 renal = system: UO-31 renal

COc1cc2c(=O)n(CC3CCCCC3)c3c4cc[nH]c4ncc3c2cc1OC
GI50 (786-0 renal): 1.31 µM | TGI (786-0 renal): 9.25 µM | GI50 (A498 renal): 0.086 µM | TGI (A498 renal): 3.06 µM | GI50 (A549 NSCLC): 5 µM | TGI (A549 NSCLC): 16.9 µM | GI50 (ACHN renal): 2.16 µM | TGI (ACHN renal): 10.4 µM | GI50 (BT-549 breast): 0.807 µM | TGI (BT-549 breast): 14.7 µM | GI50 (CAKI-1 renal): 1.19 µM | TGI (CAKI-1 renal): 7.39 µM | GI50 (CCRF-CEM leukemia): 2.54 µM | TGI (CCRF-CEM leukemia): > 50 µM | GI50 (COLO 205 colon): 1.67 µM | TGI (COLO 205 colon): 11.7 µM | GI50 (DU-145 prostate): 4.96 µM | TGI (DU-145 prostate): 19.6 µM | GI50 (EKVX NSCLC): 5.52 µM | TGI (EKVX NSCLC): > 50 µM | GI50 (HCC-2998 colon): 18.7 µM | TGI (HCC-2998 colon): > 50 µM | GI50 (HCT-116 colon): 1.01 µM | TGI (HCT-116 colon): 12.3 µM | GI50 (HCT-15 colon): 1.69 µM | TGI (HCT-15 colon): > 50 µM | GI50 (HL-60(TB) leukemia): 12.8 µM | TGI (HL-60(TB) leukemia): > 50 µM | GI50 (HOP-62 NSCLC): 2.54 µM | TGI (HOP-62 NSCLC): 11.2 µM | GI50 (HOP-92 NSCLC): 0.137 µM | TGI (HOP-92 NSCLC): 2.78 µM | GI50 (HS 578T breast): 0.719 µM | TGI (HS 578T breast): 4.09 µM | GI50 (HT29 colon): 2.85 µM | TGI (HT29 colon): 15.2 µM | GI50 (IGROV1 ovarian): 0.891 µM | TGI (IGROV1 ovarian): 13.8 µM | GI50 (K-562 leukemia): 0.187 µM | TGI (K-562 leukemia): 15.8 µM | GI50 (KM12 colon): 0.0362 µM | TGI (KM12 colon): 34.9 µM | GI50 (LOX IMVI melanoma): 2.3 µM | TGI (LOX IMVI melanoma): 14.3 µM | GI50 (M14 melanoma): 4.3 µM | TGI (M14 melanoma): > 50 µM | GI50 (MALME-3M melanoma): 6.33 µM | TGI (MALME-3M melanoma): 26.3 µM | GI50 (MCF7 breast): 0.64 µM | TGI (MCF7 breast): > 50 µM | GI50 (MDA-MB-231 breast): 1.13 µM | TGI (MDA-MB-231 breast): 7.59 µM | GI50 (MDA-MB-435): 4.15 µM | TGI (MDA-MB-435): > 50 µM | GI50 (MOLT-4 leukemia): 5.64 µM | TGI (MOLT-4 leukemia): > 50 µM | GI50 (NCI-H226 lung): 0.0556 µM | TGI (NCI-H226 lung): 17.2 µM | GI50 (NCI-H23 lung): 6.66 µM | TGI (NCI-H23 lung): > 50 µM | GI50 (NCI-H460 lung): 2.25 µM | TGI (NCI-H460 lung): 9.41 µM | GI50 (NCI-H522 lung): 1.34 µM | TGI (NCI-H522 lung): 18.3 µM | GI50 (NCI/ADR-RES ovarian): 3.74 µM | TGI (NCI/ADR-RES ovarian): 34.5 µM | GI50 (OVCAR-3 ovarian): 6.66 µM | TGI (OVCAR-3 ovarian): 18 µM | GI50 (OVCAR-4 ovarian): 1.1 µM | TGI (OVCAR-4 ovarian): 10.3 µM | GI50 (OVCAR-5 ovarian): 1.74 µM | TGI (OVCAR-5 ovarian): 24.2 µM | GI50 (OVCAR-8 ovarian): 5 µM | TGI (OVCAR-8 ovarian): > 50 µM | GI50 (PC-3 prostate): 2.23 µM | TGI (PC-3 prostate): 12.2 µM | GI50 (RPMI-8226 leukemia): 3.1 µM | TGI (RPMI-8226 leukemia): > 50 µM | GI50 (RXF 393 renal): 0.407 µM | TGI (RXF 393 renal): 5.55 µM | GI50 (SF-268 CNS): 1.4 µM | TGI (SF-268 CNS): 13.9 µM | GI50 (SF-295 CNS): 2.18 µM | TGI (SF-295 CNS): 10.7 µM | GI50 (SF-539 CNS): 0.681 µM | TGI (SF-539 CNS): 3.08 µM | GI50 (SK-MEL-2 melanoma): 8.69 µM | TGI (SK-MEL-2 melanoma): 41.7 µM | GI50 (SK-MEL-28 melanoma): 7.25 µM | TGI (SK-MEL-28 melanoma): 31.2 µM | GI50 (SK-MEL-5 melanoma): 4.37 µM | TGI (SK-MEL-5 melanoma): 25.9 µM | GI50 (SK-OV-3 ovarian): 4.36 µM | TGI (SK-OV-3 ovarian): 24.2 µM | GI50 (SN12C renal): 1.46 µM | TGI (SN12C renal): 11.6 µM | GI50 (SNB-19 CNS): 5.16 µM | TGI (SNB-19 CNS): 19.5 µM | GI50 (SNB-75 CNS): 0.209 µM | TGI (SNB-75 CNS): 1.9 µM | GI50 (SR leukemia): 0.313 µM | TGI (SR leukemia): > 50 µM | GI50 (SW-620 colon): 2 µM | TGI (SW-620 colon): 14.6 µM | GI50 (T-47D breast): 3.66 µM | TGI (T-47D breast): > 50 µM | GI50 (TK-10 renal): 4.66 µM | TGI (TK-10 renal): 18.9 µM | GI50 (U251 CNS): 4.85 µM | TGI (U251 CNS): 15.7 µM | GI50 (UACC-257 melanoma): 23.8 µM | TGI (UACC-257 melanoma): > 50 µM | GI50 (UACC-62 melanoma): 6.01 µM | TGI (UACC-62 melanoma): > 50 µM | GI50 (UO-31 renal): 0.848 µM | TGI (UO-31 renal): 9.56 µM
